Results as given in BigSolDB 2.1.

Nc1nc(NC2CC2)c2ncn([C@H]3C=C[C@@H](CO)C3)c2n1
solubility (mole fraction)
Settings	278.15 K	283.15 K	288.15 K	293.15 K	298.15 K	303.15 K	308.15 K	313.15 K	318.15 K	323.15 K
in acetone	0.00115	0.00123	0.00131	0.00142	0.00155	0.00169	0.00183	0.00205	0.00225	0.00247
in ethanol	0.00601	0.00651	0.00716	0.00803	0.00903	0.0104	0.0123	0.0142	0.0162	0.0184
in ethyl acetate	0.000631	0.000705	0.000796	0.000906	0.00102	0.00112	0.00127	0.00147	0.00168	0.00192
in isobutanol	0.00772	0.00823	0.00896	0.0101	0.0113	0.0121	0.0131	0.0144	0.0164	0.0182
in isopropanol	0.00451	0.00483	0.00534	0.006	0.00655	0.00744	0.00855	0.0096	0.0111	0.0123
in methanol	0.00623	0.00688	0.00825	0.00965	0.0109	0.0126	0.0147	0.0181	0.0209	0.0241
in methyl acetate	0.000901	0.00101	0.0011	0.00123	0.0014	0.00156	0.00176	0.00206	0.0023	0.0026
in n-butanol	0.00718	0.00798	0.0089	0.0103	0.0117	0.0133	0.0155	0.0177	0.0204	0.0231
in n-pentanol	0.00898	0.0106	0.012	0.0134	0.0153	0.0169	0.0195	0.0226	0.0248	0.0277
in n-propanol	0.00798	0.0087	0.00952	0.0107	0.0119	0.0136	0.0159	0.0184	0.0211	0.024
in sec-butanol	0.00768	0.00844	0.00927	0.0104	0.0118	0.0134	0.015	0.0172	0.0197	0.0222
in water	0.000239	0.000266	0.000295	0.000334	0.000386	0.000436	0.0005	0.000547	0.000649	0.000748
